# Laboratory results reported in US10934351B2, “Cancer stem cell-specific molecule” (CHUGAI SEIYAKU KABUSHIKI KAISHA, priority 2011, dated 2021).
# How the values were obtained:
# [1] = system: Lgr5-positive large intestine CSCs; test: Cell proliferation / chemosensitivity assay (Cell Counting Kit-8), adherent CSCs; type: cell-based, human
# Method: (§1) Floating and adherent CSCs were plated at about 100 and 1×10^4 cells/well in 96-well plates, respectively. On days 0 and 3, viable cell counts were determined by the Cell Counting Kit-8 Assay (Doujindo) according to the manufacturer's protocol. Average absorbance on day 0 was taken as 100%. For chemosensitivity assay, floating and adherent CSCs were plated at about 100 and 1×10^4 cells/well in 96-well plates, respectively. […] After three days of culture in the presence of the agents, the Cell Counting Kit-8 was added to the cells. The average absorbance of cells exposed to DMSO or medium alone was taken as 100%. All experiments were performed in triplicate.
# [2] = system: Lgr5-negative large intestine CSCs; test: Cell proliferation / chemosensitivity assay (Cell Counting Kit-8), Lgr5-negative CSCs; type: cell-based, human; conditions: for proliferation and survival of Lgr5-negative large intestine CSCs: 10 μg/ml, three days (FIGS. 10 and 24); for percentage of viable cells relative to non-treated control cells: Lgr5-negative CSCs (PLR59 and PLR123), three days, concentration series (FIG. 47)
# Method: as §1
# [3] = system: Lgr5-positive large intestine CSCs; test: Change in Lgr5 expression of Lgr5-positive CSCs after chemotherapeutic treatment (flow cytometry / immunocytochemistry); type: cell-based, human; conditions: for Lgr5 state of drug-resistant cells arising from Lgr5-positive CSCs: three-day exposure, 10 μg/ml (FIGS. 11, 32, 25)
# Method: Large intestine CSCs were incubated with mouse anti-human Lgr5 antibody (2T15E-2) and then with […] rat anti-mouse IgG antibody (Invitrogen) to stain Lgr5. The aldehyde dehydrogenase activity was measured using the AldeFluor Kit (Stemcell Technologies). Mouse cells were discriminated from human large intestine CSCs by staining with anti-mouse MHC class I antibody (Abcam), and PE- or APC-labeled goat […] IgG2a antibody (BioLegend). Dead cells were also removed using the 7-AAD Viability Dye (Beckman Coulter).
# In addition, to assess whether Lgr5-negative large intestine CSCs undergo a transition into an Lgr5-positive state, the present inventors cultured adherently Lgr5-negative large intestine CSCs prepared via irinotecan treatment again in a serum-free stem cell culture medium. […] On the other hand, when Lgr5-positive adherent large intestine CSCs were cultured in an ultra-low adherent plate, the present inventors observed that some of the cells halted their growth and formed a spheroid-like structure and that the Lgr5 mRNA level was very low (FIGS. 12 and 33). The transition from the Lgr5-positive to Lgr5-negative state (and the reverse) was also confirmed by observations using a single cell in culture. […]
# Using a stem cell medium, Lgr5-positive adherent cells were seeded at 3×10^5 cells/well in a 6-well plate (BD, Cat. No. 353046). […] After three-day culture, irinotecan-resistant cells were detected. […]
# FITC-labeled mouse mAb to human CD326 (EpCAM), PE-labeled mouse mAb to human CD133/1 (AC133), PE-labeled mouse mAb to human CD44, PE-labeled mouse mAb to human CD166, PE-labeled mouse mAb to human CD24, PE-labeled mouse mAb to human CD26, or PE-labeled mouse mAb to human CD29. […] The ALDH activity was detected using AldeFluor Kit according to the procedure recommended by the manufacturer. […] Cells negative for 7-AAD Viability Dye were analyzed for cancer stem cell markers.
# [4] = system: tumors derived from Lgr5-positive CSCs (PLR123); test: Irinotecan treatment of NOG mice bearing tumors derived from Lgr5-positive CSCs; type: in vivo
# Method: Mice bearing tumors derived from Lgr5-positive CSCs (PLR123) were treated with irinotecan, and their tumors were observed. Irinotecan or vehicle was administered to mice at days 12, 15, and 18 after tumor grafting. Scale bar represents 25 μm.
# FIG. 55 Irinotecan was administered at a dose of 120 mg/kg/day to NOG mice at days 12, 15, and 18 after grafting tumors derived from Lgr5-positive CSCs (PLR123). This figure is a graph showing tumor volumes in control mice administered with vehicle (closed diamond) and mice administered with irinotecan (closed square or triangle). Each value represents mean+standard deviation.
# FIG. 56 is a graph showing the numbers of Lgr5-positive and HLA-DMA-positive cells in xenograft tumor tissues. Thin sections of tissues were treated with Lgr5 antibody and HLA-DMA antibody, and then the numbers of Lgr5-positive and HLA-DMA-positive cells were measured. Values represent the total numbers of cells counted for respective groups (n=3).
# To probe the possibility of in vivo transition to a growth inhibitor-resistant state, irinotecan was administered at the maximum tolerated dose (MTD) (120 mg/kg) into the peritoneal cavities of NOG mice bearing tumors derived from Lgr5-positive CSCs. […] By contrast, in vehicle-treated control mice, about one third of cancer cells were positive for Lgr5 in both ductal and budding areas (FIG. 54). Both Lgr5-positive cells and HLA-DMA-positive and Lgr5-negative cells were positive for EREG, and were identified to be CSCs (FIG. 54). After irinotecan treatment, Lgr5-positive cells appeared again (FIG. 54).
# [5] = system: irinotecan-non-treated PLR123; test: Internalization activity / anti-tumor effect with Mab-ZAP or Rat-ZAP (CellTiter-Glo); type: cell-based, human; conditions: with Mab-ZAP or Rat-ZAP 1 μg/ml, 72 hours
# Method: (§2) Mab-ZAP and Rat-ZAP are anti-mouse IgG antibody and anti-rat IgG antibody, respectively, conjugated with saporin, a toxin that inhibits protein synthesis (Advanced Targeting Systems). To assess the activity of internalization into irinotecan-non-treated cells, PLR59 and PLR123 cells were seeded at a cell density of 30000 cells/80 μl/well to respective wells of a 96-well plate. Following day, each antibody solution was added at a final concentration of 0.01, 0.1, or 1 μg/ml to the respective wells. Then, Mab-ZAP or Rat-ZAP was added at a final concentration 1 μg/ml to the respective wells, and the plate was incubated at 37° C. for 72 hours in a CO2 incubator. To assess the activity of internalization into irinotecan-treated cells, PLR59 and PLR123 cells were seeded in a 96-well plate, and irinotecan was added at a final concentration of 15 μM to each well. The plate was incubated at 37° C. for 72 hours in a CO2 incubator. Various antibodies were assessed for the activity of internalization to cells cultured as described above in the presence or absence of irinotecan. For assay, the various antibodies were each assessed for the internalization activity into cells contained in each well where the medium was replaced with the same irinotecan-free medium as used for irinotecan-non-treated cells. Seventy-two hours after addition of antibodies and Mab-ZAP or Rat-ZAP, 10 μl of 3% SDS (Nacalai Tesque) was added to each well of the plate. The cells in the plate were lysed thoroughly by stirring the plate using a plate mixer. Then, 100 μl of CellTiter-Glo™ Luminescent Cell Viability Assay (Promega) was added to each well. The mixture in each well was assayed to determine its luminescent signal. […] In Table 14, symbols, −, +, ++, and +++, represent relative values for the internalization activity when a test antibody was assayed at a concentration of […]. […] Symbols, −, +, ++, and +++, indicate that the relative value is less than 5%, 5% or more and less than 15%, 15% or more and less than 25%, and 25% or more, respectively.
# [6] = system: irinotecan-non-treated PLR59; test: as above; type: cell-based, human; conditions: with Mab-ZAP or Rat-ZAP 1 μg/ml, 72 hours
# Method: as §2
# [7] = system: irinotecan-non-treated PLR123; test: Flow cytometry (FCM) binding activity of commercially available antibodies to cell-surface antigens; set-up: species or system human; conditions: with antibody
# Method: (§3) The present inventors tested whether an anti-tumor effect can be expected with target therapy using a membrane protein expressed at a high level as the target in irinotecan-treated or non-treated PLR59 and PLR123. Commercially available antibodies shown in Table 12 were assessed by flow cytometry (FCM) for the binding activity to antigens expressed on the cell surface of irinotecan-treated or non-treated PLR59 or PLR123.
# [8] = system: irinotecan-non-treated PLR59; test: as above; set-up: species or system human; conditions: with antibody
# Method: as §3
# [9] = 10 μg/ml, three days (FIGS. 10 and 24)
# [10] = 120 mg/kg irinotecan (FIGS. 54 and 56)
Molecule,"proliferation of Lgr5-positive large intestine CSCs [1, 9]",proliferation and survival of Lgr5-negative large intestine CSCs [2],percentage of viable cells relative to non-treated control cells [2],Lgr5 state of drug-resistant cells arising from Lgr5-positive CSCs [3],internalization activity level [5],internalization activity level [6],"binding activity by flow cytometry (FCM), Antibody + [7]","binding activity by flow cytometry (FCM), Antibody + [8]",further results
"O=c1[nH]cc(F)c(=O)[nH]1 [5-FU, fluorouracil]",significantly inhibited,did not affect,fully resistant,negative for Lgr5,–,–,–,–,–
Cc1cc([N+](=O)[O-])ccc1NS(=O)(=O)c1cc(Cl)ccc1Cl [FH535],–,–,–,–,–,–,–,–,"proliferation of Lgr5-positive large intestine CSCs ([1]; 50 μM, three days of culture, PLR59 and PLR123 (FIGS. 8 and 22)): significantly reduced; proliferation of Lgr5-negative large intestine CSCs ([2]; 50 μM, three days of culture (FIGS. 8 and 22)): had no effect"
COc1cc(O)cc(O)c1C(=O)/C=C/c1ccccc1 [cardamonin],–,–,–,–,–,–,–,–,"viable cell count ([1]; 50 μM, three days of culture, Lgr5-positive CSCs (FIGS. 8 and 22)): 70%; viable cell count ([2]; 50 μM, three days of culture, Lgr5-negative CSCs (FIGS. 8 and 22)): about 50%"
CCc1c2c(nc3ccc(OC(=O)N4CCC(N5CCCCC5)CC4)cc13)-c1cc3c(c(=O)n1C2)COC(=O)[C@]3(O)CC [irinotecan],significantly inhibited,did not affect,fully resistant,negative for Lgr5,–,–,–,–,"transition of single Lgr5-positive cells into the Lgr5-negative state ([3]; single cells cultured in multi-well plate, irinotecan treatment, within three days (FIG. 49, Table 5)): underwent a transition into the Lgr5-negative state; tumor growth ([4]; 120 mg/kg (MTD) into the peritoneal cavities, days 12, 15, 18 after grafting (FIG. 55)): inhibited almost completely; Lgr5-positive cells in tumor [4, 10]: dramatic decrease; number of Lgr5-negative and HLA-DMA-positive cells in tumor [4, 10]: increased significantly"
"EDAR (protein, listed as Homo sapiens) MAHVGDCTQTPWLPVLVVSLMCSARAEYSNCGENEYYNQTTGLCQECPPCGPGEEPYLSCGYGTKDEDYGCVPCPAEKFSKGGYQICRRHKDCEGFFRATVLTPGDMENDAECGPCLPGYYMLENRPRNIYGMVCYSCLLAPPNTKECVGATSGASANFPGTSGSSTLSPFQHAHKELSGQGHLATALIIAMSTIFIMAIAIVLIIMFYILKTKPSAPACCTSHPGKSVEAQVSKDEEKKEAPDNVVMFSEKDEFEKLTATPAKPTKSENDASSENEQLLSRSVDSDEEPAPDKQGSPELCLLSLVHLAREKSATSNKSAGIQSRRKKILDVYANVCGVVEGLSPTELPFDCLEKTSRMLSSTYNSEKAVVKTWRHLAESFGLKRDEIGGMTDGMQLFDRISTAGYSIPELLTKLVQIERLDAVESLCADILEWAGVVPPASQPHAAS",–,–,–,–,− (less than 5%),++ (15% or more and less than 25%),61,37,–
"CD70 (protein, listed as Homo sapiens) MPEEGSGCSVRRRPYGCVLRAALVPLVAGLVICLVVCIQRFAQAQQQLPLESLGWDVAELQLNHTGPQQDPRLYWQGGPALGRSFLHGPELDKGQLRIHRDGIYMVHIQVTLAICSSTTASRHHPTTLAVGICSPASRSISLLRLSFHQGCTIASQRLTPLARGDTLCTNLTGTLLPSRNTDETFFGVQWVRP",–,–,–,–,+++ (25% or more),+++ (25% or more),1843,1177,–
